Experiments:
[1] = Film stability with concentrated salt formulations, starch/gelling carrageenan film; type: physicochemical; settings: concentrated suspension/solution in film depression, open exposure
Experimental: (§1) The films were formed and spread over a holding device such that small depressions could be formed in the surface of the film. A depression was formed and subsequently filled with the concentrated suspension of the salt formulation. Simultaneously, two acidic solutions were tested by the same protocol. […] This is well-known in the art to be an extremely aggressive mode of stability testing, resulting in acceleration in the interaction between shell and fill of over 260 times normal rates.

[2] = Film stability with concentrated salt formulations, gelatin film; type: physicochemical; settings: concentrated suspension/solution in film depression, open exposure
Experimental: as §1

[3] = sodium or potassium hydroxide required to solubilize acetaminophen at greater than about 27% by weight; cited from earlier work

| SMILES | Test Result After 24 Hours at 40° C.-75% RH, Starch/Gelling Carrageenan film [1] | Test Result After 24 Hours at 40° C.-75% RH, Gelatin film [2] | pH of the PEG solution [3] |
| --- | --- | --- | --- |
| O=C(O)CC(O)(CC(=O)O)C(=O)O [Citric acid] | Fail | Fail |  |
| O=C([O-])c1ccccc1C(=O)O.[K+] [Potassium Hydrogen Phthalate] | Pass | Fail |  |
| CC(=O)Nc1ccc(O)cc1 [acetaminophen, N-acetyl-p-aminophenol] |  |  | greater than 12 |
| O=P([O-])([O-])[O-].[Na+].[Na+].[Na+] [Sodium PO4-(tribasic)] | Pass | Fail |  |
| O=P([O-])([O-])O.[K+].[K+] [Potassium PO4-(dibasic)] | Pass | Fail |  |
| CC(=O)O.N [Ammonium acetate] | Pass | Fail |  |
| O=C(O)C(O)C(O)C(=O)O (centres unmarked) [Tartaric acid] | Fail | Fail |  |
| O=C([O-])CC(O)(CC(=O)[O-])C(=O)[O-].[K+].[K+].[K+] [Potassium citrate] | Pass | Fail |  |
| CC(=O)[O-].[K+] [Potassium acetate] | Pass | Fail |  |

— US8377470B2, “Non-gelatin soft capsule system” (R.P. Scherer Technologies, LLC, priority 2004, dated 2013)
